Publication PMC2859832 (Journal of medicinal chemistry, 2009)
Read-outs that look alike come from different tables or passages of the source. Starred links: 1 amine or outer side, 2 acyl side, 3 side chain; linkers in the order of their positions; H or OH if unused. Non-standard residues stand in square brackets, D forms with d. *: point of attachment. mPro = cis-3,4-methanoproline, O=C([C@@H]1[C@@H]2C[C@@H]2CN1[*:1])[*:2]; pY = N[C@@H](Cc1ccc(OP(=O)(O)O)cc1)C(=O)O; Hydrocinnamoyl = O=C(CCc1ccccc1)*; NHBn = c1ccc(CN*)cc1

Columns and labels:
SH2 domain of Stat3 [1] = target: T1, SH2 domain of Stat3 (Homo sapiens, UniProt P40763); assay: fluorescence polarization; format: binding; settings: for fold lower affinity than the unsubstituted methyl group: relative to 4-methyl Aba peptide (17)
SH2 domain of Stat3 [2] = target: T1, SH2 domain of Stat3; settings: FP assay; ref [8]; cited from earlier work

T1 sequence (P40763 whole entry, the tested form may be a part): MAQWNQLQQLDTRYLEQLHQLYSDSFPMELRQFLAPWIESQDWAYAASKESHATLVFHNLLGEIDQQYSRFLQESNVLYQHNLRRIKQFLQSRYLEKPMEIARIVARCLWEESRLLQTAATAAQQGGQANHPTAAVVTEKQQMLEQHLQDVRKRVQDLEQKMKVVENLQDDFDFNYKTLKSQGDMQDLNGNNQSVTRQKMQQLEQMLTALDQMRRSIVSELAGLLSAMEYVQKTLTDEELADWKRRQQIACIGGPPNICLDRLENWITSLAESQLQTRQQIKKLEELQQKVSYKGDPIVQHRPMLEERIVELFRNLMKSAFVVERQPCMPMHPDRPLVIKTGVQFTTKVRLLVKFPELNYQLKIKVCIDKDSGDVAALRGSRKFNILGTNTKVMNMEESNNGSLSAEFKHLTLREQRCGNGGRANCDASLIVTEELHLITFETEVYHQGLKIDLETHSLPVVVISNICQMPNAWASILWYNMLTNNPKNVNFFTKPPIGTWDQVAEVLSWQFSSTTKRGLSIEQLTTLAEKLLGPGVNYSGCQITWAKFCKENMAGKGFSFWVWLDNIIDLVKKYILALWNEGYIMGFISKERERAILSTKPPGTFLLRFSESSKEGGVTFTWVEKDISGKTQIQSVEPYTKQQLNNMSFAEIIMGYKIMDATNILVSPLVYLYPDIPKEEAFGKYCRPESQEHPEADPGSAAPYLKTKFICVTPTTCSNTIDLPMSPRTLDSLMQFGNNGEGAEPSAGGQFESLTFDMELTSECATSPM

## CC(C)C[C@H](NC(=O)/C=C/c1ccc(OP(=O)(O)O)cc1)C(=O)N1CCC[C@H]1C(=O)N[C@H](CN)CCC(N)=O [Peptide 30]
SH2 domain of Stat3 [1]
  fold lower affinity than the unsubstituted methyl group: 10 fold

## CC(C)C[C@H](NC(=O)/C=C/c1ccc(OP(=O)(O)O)cc1)C(=O)N1CCC[C@H]1C(=O)N[C@@H](COC(N)=O)[C@H](C)OCc1ccccc1 [Peptide 37]
SH2 domain of Stat3 [1]
  IC50: 6.9 µM

## CC(C)C[C@H](NC(=O)/C=C/c1ccc(OP(=O)(O)O)cc1)C(=O)N1CCC[C@H]1C(=O)N[C@@H](CCC(N)=O)CN(Cc1ccccc1)Cc1ccccc1 [Peptide 29]
SH2 domain of Stat3 [1]
  fold lower affinity than the unsubstituted methyl group: 7 fold

## hydrocinnamoyl-pTyr-Leu-mPro-Gln-NHBn (Hydrocinnamoyl-[pY]L[mPro]Q-NHBn; SMILES CC(C)C[C@H](NC(=O)[C@H](Cc1ccc(OP(=O)(O)O)cc1)NC(=O)CCc1ccccc1)C(=O)N1C[C@H]2C[C@H]2[C@H]1C(=O)N[C@@H](CCC(N)=O)C(=O)NCc1ccccc1)
SH2 domain of Stat3 [2]
  IC50: 0.125 µM

## CC(C)C[C@H](NC(=O)/C=C/c1ccc(OP(=O)(O)O)cc1)C(=O)N1CCC[C@H]1C(=O)N[C@H](C)CNC(N)=O [Peptide 39]
SH2 domain of Stat3 [1]; relative to 2-aminoethylurea peptide 38
  fold loss in activity on addition of a methyl group: 10 fold

## CC(C)C[C@H](NC(=O)/C=C/c1ccc(OP(=O)(O)O)cc1)C(=O)N1C[C@H]2C[C@H]2[C@H]1C(=O)N[C@@H](CCC(N)=O)C(=O)NCc1ccccc1 [Peptide 40, pCinn-Leu-cis-3,4-methanoPro-Gln-NHBn]
SH2 domain of Stat3 [1]; relative to peptide 2
  fold increase in affinity on incorporation of cis-3,4-methanoPro: 2 fold
